# What was measured:
# [1] = Solubility of peptides in DMSO/D5W/5 mM succinate formulation; conditions: pH 6
# [2] = Peptide diluent matrix (precipitation of DMSO dissolved peptides in various liquids); type: physicochemical; parameters: key to Precipitation in diluent: Liposome / Precipitation in diluent: PBS pH 7.4 / Precipitation in diluent: Water / Precipitation in diluent: 10% Sucrose / Precipitation in diluent: D5W (5% Dextrose USP Grade Inj): P = precipitation; NP = no precipitation; conditions: for Precipitation in diluent: 10% Sucrose: 10-20 μL DMSO dissolved peptide added to 10% Sucrose; for Precipitation in diluent: D5W (5% Dextrose USP Grade Inj): 10-20 μL DMSO dissolved peptide added to D5W; for Precipitation in diluent: Liposome: 10-20 μL DMSO dissolved peptide added to Liposome; for Precipitation in diluent: PBS pH 7.4: 10-20 μL DMSO dissolved peptide added to PBS pH 7.4; for Precipitation in diluent: Water: 10-20 μL DMSO dissolved peptide added to Water
# Method: Additional peptide solubility conditions were tested. Peptides CS6709, CS6712, CS6720, CS6726, and CS6783 were weighed at approximately 10 mg each. The peptides were then dissolved in approximately 200 μL USP grade DMSO to obtain a 50 mg/mL concentration for each peptide. […] The sample appeared to be cloudy. Additional 50 μL increments of DMSO were added to Peptide CS6709 up to 400 μL; for a total of 600 μL of DMSO. […] To dilute the peptides to 400 μg, a PBS pH 7.4 solution without potassium was prepared. All 5 DMSO peptide samples (50 mg/mL) were placed in a single vial for dilution to 400 μg/mL. Each DMSO peptide was added to the vial at 40 μL, except for CS6709 which was at a concentration of 16.67 mg/mL. The volume of CS6709 added to the single vial was 120 μL. The samples were diluted to 400 μg by adding 4.72 mL PBS pH 7.4. Upon addition of the PBS pH 7.4, it was observed that one or more of the peptides had precipitated out. To determine which of the peptides precipitated, Applicants followed the matrix in Table 5 below using very small amounts (10-20 μL) of the DMSO dissolved peptides and adding these peptides to the various liquids.
# [3] = Direct dissolution of peptides in D5W without DMSO; type: physicochemical; conditions: <1 mg peptide
# [4] = pH of peptide solutions in DMSO/D5W, with succinate, and with Hiltonol; type: physicochemical
# [5] = Solubility of peptides in DMSO (50 mg/ml); type: physicochemical
# Method: The only problematic peptides are very hydrophobic peptides. Additional peptide solubility conditions were tested. Peptides CS6709, CS6712, CS6720, CS6726, and CS6783 were weighed at approximately 10 mg each. The peptides were then dissolved in approximately 200 μL USP grade DMSO to obtain a 50 mg/mL concentration for each peptide. […] The sample appeared to be cloudy. Additional 50 μL increments of DMSO were added to Peptide CS6709 up to 400 μL; for a total of 600 μL of DMSO.
# [6] = Short-term room temperature stability of Pool 3 mixed with Hiltonol (RP-HPLC); type: physicochemical
# Method: A peptide pool (Pool 3) consisting of the five peptides shown in Table 6 below was prepared by dissolution in DMSO and dilution with D5W/Succinate (2 mM) to 2 mg/ml and pooling to a final peptide concentration of 400 μg per ml and a final DMSO concentration of 4%. After preparation, peptides were filtered with a 25 mm Pall PES filter (Cat#4612) and dispensed into Nunc Cryo vials (#375418) in one ml aliquots.
# Three samples were prepared by mixing 0.75 ml of Pool3 with 0.25 ml Hiltonol® as planned for the dosage form preparation. The samples were then left at room temperature for 0, 4 and 6 hours and analyzed by RP-HPLC (Table 7). […] As slight increase in a second peak associated with peptide CS6919 was noted, increasing from 14% to 17% and 18% at 4 and 6 hours, respectively. […] Recovery of all peptides was above 90%, indicating no breakdown and loss of any peptides in the final dosage form after 6 hour room temperature incubation.
substance,measurement,setting,value
H-ASRALEEKKGNYVVTDHGSCVRA-OH,solubility,[1],> 2 mg/mL
H-AVRSPGSPLILEVGSGSGAIS-OH,solubility,[1],> 2 mg/mL
H-DPNKYPVPENWLYKEAHQLFLE-OH,solubility,[1],> 2 mg/mL
H-DSAVDKGHPNRSALSLTPGLRIGPSGIPQAGLG-OH [CS6726],Precipitation in diluent: 10% Sucrose,[2],NP
same,Precipitation in diluent: D5W (5% Dextrose USP Grade Inj),[2],NP
same,Precipitation in diluent: Liposome,[2],NP
same,Precipitation in diluent: PBS pH 7.4,[2],NP
same,Precipitation in diluent: Water,[2],NP
same,Dissolution directly in D5W without using DMSO,[3],could be dissolved directly in D5W
H-ESKLFGDPDEFSLAHLLEPFRQYYL-OH,solubility,[1],< 2 mg/mL
H-ETYSRSFYPEHSIKEWLIGMELVFV-OH,solubility,[1],< 2 mg/mL
H-GALGAVGATKVPRNQDWLGVSRQLRTKA-OH,solubility,[1],> 2 mg/mL
H-HPEFANPDSMEYISDVVDEVIQN-OH,solubility,[1],> 2 mg/mL
H-LAALCPASRALEEKKGNYVVTDH-OH,solubility,[1],> 2 mg/mL
H-LAALCPASRALEEKKGNYVVTDHGS-OH,solubility,[1],> 2 mg/mL
H-LCPASRALEEKKGNYVVTDHGS-OH,solubility,[1],> 2 mg/mL
H-LDVLQRPLSPGNSEFLTATANYSK-OH,solubility,[1],< 2 mg/mL
H-LKDSNSWPPSNKRGFDTEDAHKSNATPVP-OH [CS6712],Precipitation in diluent: 10% Sucrose,[2],NP
same,Precipitation in diluent: D5W (5% Dextrose USP Grade Inj),[2],NP
same,Precipitation in diluent: Liposome,[2],NP
same,Precipitation in diluent: PBS pH 7.4,[2],NP
same,Precipitation in diluent: Water,[2],NP
same,Dissolution directly in D5W without using DMSO,[3],could be dissolved directly in D5W
H-LLTDRNTSGTTFTLLGVSDYPELQVPLFLVFLA-OH [CS6783],pH of peptides in DMSO/D5W,[4],3.96
same,Precipitation in diluent: 10% Sucrose,[2],NP
same,Precipitation in diluent: D5W (5% Dextrose USP Grade Inj),[2],NP
same,Precipitation in diluent: Liposome,[2],P
same,Precipitation in diluent: PBS pH 7.4,[2],P
same,Precipitation in diluent: Water,[2],NP
same,Precipitation when PBS pH 7.4 added as diluent to the peptide mixture,[2]; dilution to 400 μg/mL,precipitate
same,Dissolution directly in D5W without using DMSO,[3],could not be dissolved
H-LTDLPGRIRVAPQQNDLDSPQQISISNAE-OH [CS6709],Concentration at which peptide went into solution (clear) in DMSO,[5],16670 µg/mL
same,Dissolution in DMSO at 50 mg/mL,[5]; 10.02 mg in 200 μL DMSO,did not fully dissolve
same,Precipitation in diluent: 10% Sucrose,[2],NP
same,Precipitation in diluent: D5W (5% Dextrose USP Grade Inj),[2],NP
same,Precipitation in diluent: Liposome,[2],NP
same,Precipitation in diluent: PBS pH 7.4,[2],NP
same,Precipitation in diluent: Water,[2],NP
same,Dissolution directly in D5W without using DMSO,[3],could be dissolved directly in D5W
H-LVDQWRWGVFSGHTPPSRYNFDWWY-OH,solubility,[1],< 2 mg/mL
H-PAAGDFIRFRFFQLLRLERFF-OH,solubility,[1],< 2 mg/mL
H-PETGEIQVKTFLDREQRESYELKV-OH,solubility,[1],> 2 mg/mL
H-PIDTSKTDPTVLLFMESQYSQLGQD-OH,solubility,[1],> 2 mg/mL
H-SHKLESIKEITNFKDAKQLL-OH,solubility,[1],> 2 mg/mL
H-SKRGVGAKTLLLPDPFLFWPCLEGTRRSL-OH [CS6934],pH of peptides in DMSO/D5W,[4],3.86
same,pH of peptides in DMSO/D5W/5mM S. Succinate spike,[4],6.57
same,pH of peptides in DMSO/D5W/5nnM Succinate and Hiltonol,[4],6.79
same,% Impurity,"[6]; Pool 3 + Hiltonol, 4 Hours RT",3.06%
same,% Purity,"[6]; Pool 3 + Hiltonol, 4 Hours RT",96.94%
same,Main Peak,"[6]; Pool 3 + Hiltonol, 4 Hours RT",5842.22
same,Total Impurities,"[6]; Pool 3 + Hiltonol, 4 Hours RT",184.46
same,Total Peak,"[6]; Pool 3 + Hiltonol, 4 Hours RT",6026.68
same,% Impurity,"[6]; Pool 3 + Hiltonol, 6 Hours RT",3.41%
same,% Purity,"[6]; Pool 3 + Hiltonol, 6 Hours RT",96.59%
same,Main Peak,"[6]; Pool 3 + Hiltonol, 6 Hours RT",6268.16
same,Total Impurities,"[6]; Pool 3 + Hiltonol, 6 Hours RT",221.46
same,Total Peak,"[6]; Pool 3 + Hiltonol, 6 Hours RT",6489.62
same,% Impurity,"[6]; T0 Pool 3 + Hiltonol, RP-HPLC",3.83%
same,% Purity,"[6]; T0 Pool 3 + Hiltonol, RP-HPLC",96.17%
same,Main Peak,"[6]; T0 Pool 3 + Hiltonol, RP-HPLC",6147.14
same,Total Impurities,"[6]; T0 Pool 3 + Hiltonol, RP-HPLC",244.49
same,Total Peak,"[6]; T0 Pool 3 + Hiltonol, RP-HPLC",6391.63
H-SLPKSFKRKIFVVSATKGVPAGNSD-OH,solubility,[1],> 2 mg/mL
H-SPTEPSTKLPGFDSCGNTEIAERKIKRIYGGFK-OH [CS6720],Precipitation in diluent: 10% Sucrose,[2],NP
same,Precipitation in diluent: D5W (5% Dextrose USP Grade Inj),[2],NP
same,Precipitation in diluent: Liposome,[2],NP
same,Precipitation in diluent: PBS pH 7.4,[2],NP
same,Precipitation in diluent: Water,[2],NP
same,Dissolution directly in D5W without using DMSO,[3],could be dissolved directly in D5W
H-VAGLAASGLHGSAWLVPGEQPVSGPHHGKQ-OH [CS6931],pH of peptides in DMSO/D5W,[4],3.80
same,pH of peptides in DMSO/D5W/5mM S. Succinate spike,[4],6.42
same,pH of peptides in DMSO/D5W/5nnM Succinate and Hiltonol,[4],6.66
same,% Impurity,"[6]; Pool 3 + Hiltonol, 4 Hours RT",3.02%
same,% Purity,"[6]; Pool 3 + Hiltonol, 4 Hours RT",96.98%
same,Main Peak,"[6]; Pool 3 + Hiltonol, 4 Hours RT",8523.53
same,Total Impurities,"[6]; Pool 3 + Hiltonol, 4 Hours RT",265.54
same,Total Peak,"[6]; Pool 3 + Hiltonol, 4 Hours RT",8789.07
same,% Impurity,"[6]; Pool 3 + Hiltonol, 6 Hours RT",3.21%
same,% Purity,"[6]; Pool 3 + Hiltonol, 6 Hours RT",96.79%
same,Main Peak,"[6]; Pool 3 + Hiltonol, 6 Hours RT",9387.81
same,Total Impurities,"[6]; Pool 3 + Hiltonol, 6 Hours RT",311.37
same,Total Peak,"[6]; Pool 3 + Hiltonol, 6 Hours RT",9699.18
same,% Impurity,"[6]; T0 Pool 3 + Hiltonol, RP-HPLC",2.16%
same,% Purity,"[6]; T0 Pool 3 + Hiltonol, RP-HPLC",97.84%
same,Main Peak,"[6]; T0 Pool 3 + Hiltonol, RP-HPLC",9014.82
same,Total Impurities,"[6]; T0 Pool 3 + Hiltonol, RP-HPLC",198.6
same,Total Peak,"[6]; T0 Pool 3 + Hiltonol, RP-HPLC",9213.42
H-VTLNDMKARQKALVRERERQLA-OH,solubility,[1],> 2 mg/mL
